Data set [1] has as its target LRRK2 (G2019S mutation, GST-LRRK2 (amino acids 970-2527)) (Homo sapiens (Human), UniProt Q5S007, G2019S). Put plainly: LRRK2 Km ATP LanthaScreen Assay. The conditions noted are these: mean IC50 of several test results. Format: biochemical. The text has this: Unless otherwise noted, all LRRK2 IC50 data presented in tables refers to the LRRK2 Km ATP LanthaScreen™ Assay that is described in the Biological Assay section.
The data presented for the Km ATP LanthaScreen™ Assay represents mean IC50 values based on several test results and may have reasonable deviations depending on the specific conditions and reagents used. Reagents for the LRRK2 Km ATP LanthaScreen™ Assay were purchased from Life Technologies Corporation.
LRRK2 Km ATP LanthaScreen™ Assay
a) 400 nl of a 1:2.15 serial dilution of test compound (98 μM top assay concentration) is spotted via Labcyte Echo to certain wells in a 384 well black, untreated plate. Control wells contain 400 nl of either DMSO or 400 nl of a known inhibitor in DMSO.
c) A 30 minute room temperature incubation is followed by addition of 10 μl of 800 nM fluorescein labeled LRRKtide peptide substrate and 186 μM ATP solution in 1× assay buffer to all wells.
d) After a 60 minute room temperature incubation, 20 μl of TR-FRET Dilution Buffer (Invitrogen PV3756B) containing 4 nM Tb-labeled anti-phospho LRRKtide antibody and 20 mM EDTA is added to all wells.
e) Plates are incubated at room temperature for 1 hour and read on an Envision™ multi-mode plate reader with LanthaScreen™ settings. Results are analysed using Assay Data Analyzer.

Data set [2] in a line: Rat pharmacokinetics, oral AUC. Format: in vivo. Particulars: single oral dose 10 mpk, plasma; for AUC: 10 mg/kg. The source says: Representative Example of a Pharmacokinetic Measurement
The pharmacokinetics of a compound of the invention (amorphous free form) can be studied following single intravenous and/or oral administration to mouse, rat, dog and/or monkey. In the present study, the pharmacokinetics of selected compounds of the invention (amorphous free form) were studied following single intravenous and/or oral administration to rat. The IV solution formulations contained 30% captisol/70% water or 1/1 DMSO/PEG-400. The PO solution formulations contained 10% tween/90% PEG-400 or 40% PEG-400/25% of a aqueous HPBCD solution (20%)/35% water. All IV formulations were given as solutions and all PO doses were given as well-behaved suspensions or solutions. Animals were fasted prior to oral dosing in single-dose studies. Oral bioavailability was estimated using non-cross-over study designs (n=2 or 3). Plasma samples were assayed using protein precipitation with acetonitrile/methanol (90/10, v/v) followed by HPLC/MS/MS analysis employing positive-ion Turbo IonSpray ionization. Plasma concentration-time data were analyzed by non-compartmental methods and expressed as AUC (area under the curve) values. Holding dose constant, higher oral AUC values represent greater oral plasma exposure.
The tables above provide oral AUC values for example 1, 8, 12, 17, and 20, in which the compound was dosed in rats at 10 mpk via a method similar to that described above.

Structures are written as SMILES. pIC50: −log10 of the molar value.

Sequence of LRRK2 (G2019S mutation, GST-LRRK2 (amino acids 970-2527)) (Q5S007 970-2527 G2019S): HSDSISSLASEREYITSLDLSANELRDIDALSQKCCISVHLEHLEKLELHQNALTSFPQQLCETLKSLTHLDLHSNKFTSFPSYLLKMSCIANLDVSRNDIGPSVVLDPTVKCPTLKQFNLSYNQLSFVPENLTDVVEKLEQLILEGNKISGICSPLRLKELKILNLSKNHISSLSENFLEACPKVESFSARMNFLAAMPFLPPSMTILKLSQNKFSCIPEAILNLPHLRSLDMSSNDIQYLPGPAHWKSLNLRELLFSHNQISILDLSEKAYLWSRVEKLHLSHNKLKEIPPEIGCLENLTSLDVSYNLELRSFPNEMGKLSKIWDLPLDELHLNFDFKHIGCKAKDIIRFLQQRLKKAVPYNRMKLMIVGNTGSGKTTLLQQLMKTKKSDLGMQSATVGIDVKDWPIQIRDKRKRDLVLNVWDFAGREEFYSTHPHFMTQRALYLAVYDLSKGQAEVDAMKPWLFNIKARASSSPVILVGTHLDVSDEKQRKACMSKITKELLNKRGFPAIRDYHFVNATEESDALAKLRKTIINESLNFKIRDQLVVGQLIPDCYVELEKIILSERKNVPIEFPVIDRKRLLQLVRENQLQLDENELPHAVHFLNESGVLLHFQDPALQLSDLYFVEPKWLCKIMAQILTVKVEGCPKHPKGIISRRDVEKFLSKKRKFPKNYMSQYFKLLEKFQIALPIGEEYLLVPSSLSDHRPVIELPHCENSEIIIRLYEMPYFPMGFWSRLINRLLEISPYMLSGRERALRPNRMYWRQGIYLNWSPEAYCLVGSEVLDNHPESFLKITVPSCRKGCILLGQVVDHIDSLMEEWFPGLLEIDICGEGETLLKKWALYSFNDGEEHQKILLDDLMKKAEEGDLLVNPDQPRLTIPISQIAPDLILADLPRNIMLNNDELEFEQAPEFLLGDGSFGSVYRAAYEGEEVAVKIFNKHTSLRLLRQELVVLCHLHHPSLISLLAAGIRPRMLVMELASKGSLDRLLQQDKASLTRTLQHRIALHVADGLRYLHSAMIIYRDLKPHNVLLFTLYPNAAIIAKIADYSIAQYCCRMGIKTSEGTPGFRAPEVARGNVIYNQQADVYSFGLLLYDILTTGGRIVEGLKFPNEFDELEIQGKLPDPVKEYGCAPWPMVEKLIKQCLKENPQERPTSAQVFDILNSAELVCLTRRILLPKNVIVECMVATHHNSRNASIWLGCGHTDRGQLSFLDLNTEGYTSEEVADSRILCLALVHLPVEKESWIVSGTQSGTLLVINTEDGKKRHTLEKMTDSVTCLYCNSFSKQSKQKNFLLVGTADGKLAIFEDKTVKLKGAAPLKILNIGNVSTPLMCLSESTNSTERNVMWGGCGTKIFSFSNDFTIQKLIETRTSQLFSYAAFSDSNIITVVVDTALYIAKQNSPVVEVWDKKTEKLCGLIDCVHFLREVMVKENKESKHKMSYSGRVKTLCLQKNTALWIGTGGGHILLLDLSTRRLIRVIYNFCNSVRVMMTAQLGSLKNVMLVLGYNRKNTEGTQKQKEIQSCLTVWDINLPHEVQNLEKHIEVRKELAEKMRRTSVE

Usually pIC50 stands for the IC50 on a negative log10 scale, so that one unit is a factor of ten. Read a high pIC50 as a small IC50. Broadly, the AUC is concentration integrated over time. In turn, `COc1ccncc1-c1ccc2cnn(-c3ccnc(N4CCOCC4)c3)c2c1` [Example 17, 4-(4-(6-(4-methoxypyridin-3-yl)-1H-indazol-1-yl)pyridin-2-yl)morpholine] showed a pIC50 in data set [1] of 7.37. In data set [2], the AUC amounted to 10 µM·h and the “Rat AUC 10 mpk PO” value was 10 ± 2.5 µM·h.
For `Cn1cc(-c2ccc3cnn(-c4ccnc(N5CCN(S(C)(=O)=O)CC5)c4)c3c2)cn1` [Example 8, 6-(1-methyl-1H-pyrazol-4-yl)-1-(2-(4-(methylsulfonyl)piperazin-1-yl)pyridin-4-yl)-1H-indazole], in that order: 7.35, 41 µM·h and 41 ± 26 µM·h.
As to `Cn1cc(-c2ccc3cnn(-c4ccnc(N5CCOCC5)c4)c3c2)cn1` [Example 1, 4-(4-(6-(1-methyl-1H-pyrazol-4-yl)-1H-indazol-1-yl)pyridin-2-yl)morpholine], in data set [2], the AUC is 2.1 µM·h and the “Rat AUC 10 mpk PO” value was 2.1 ± 0.09 µM·h.
Regarding `Cn1cc(-c2ccc3cnn(-c4ccnc(N5CC[C@@H](F)C5)c4)c3c2)cn1` [Example 12, (R)-1-(2-(3-fluoropyrrolidin-1-yl)pyridin-4-yl)-6-(1-methyl-1H-pyrazol-4-yl)-1H-indazole], in data set [1], the pIC50 is 7.05. Moreover, in data set [2], the AUC was determined as 0.82 µM·h.
In data set [1], `CN(C)C(=O)CN1CCN(c2cc(-n3ncc4ccc(-c5cnn(C)c5)cc43)ccn2)CC1` [Example 20, N,N-dimethyl-2-(4-(4-(6-(1-methyl-1H-pyrazol-4-yl)-1H-indazol-1-yl)pyridin-2-yl)piperazin-1-yl)acetamide] had a pIC50 of 7.47. In addition, in data set [2], the AUC was 1 µM·h and the “Rat AUC 10 mpk PO” value amounted to 1.0 ± 0.19 µM·h.
The compound `c1nc(N2CCOCC2)cc(-n2ncc3ccc(-c4cn[nH]c4)cc32)n1` [Example 70, 1-(6-morpholin-4-ylpyrimidin-4-yl)-6-(1H-pyrazo-4-yl)-1H-indazole] gave a pIC50 in data set [1] of 7.11.
For the compound `Cn1cc(-c2ccc3cnn(-c4ccnc(N5CCC(S(C)(=O)=O)CC5)c4)c3c2)cn1` [Example 16, 6-(1-methyl-1H-pyrazol-4-yl)-1-(2-(4-(methylsulfonyl)piperidin-1-yl)pyridin-4-yl)-1H-indazole], the pIC50 in data set [1] is 6.89.
In data set [1], `CC(C)Oc1ccc2cnn(-c3ccnc(N4CCOC(CCO)C4)c3)c2c1` (centres unmarked) [Example 25, 2-(4-(4-(6-isopropoxy-1H-indazol-1-yl)pyridin-2-yl)morpholin-2-yl)ethanol] had a pIC50 of 6.39.
The same measure, in the same setting: the figure for `c1cc(-n2ncc3ccc(-c4cn[nH]c4)cc32)cc(N2CCOCC2)n1` [Example 18, 4-(4-(6-(1H-pyrazol-4-yl)-1H-indazol-1-yl)pyridin-2-yl)morpholine] is 7.14.
On the same count and under the same terms, to `Cn1cc(-c2ccc3cnn(-c4ccnc(N5CCN(CCO)CC5)c4)c3c2)cn1` [Example 55, 2-(4-(4-(6-(1-methyl-1H-pyrazol-4-yl)-1H-indazol-1-yl)pyridin-2-yl)piperazin-1-yl)ethanol] belongs 7.15; to `CC(C)Oc1ccc2cnn(-c3ccnc(N4CCCC4)c3)c2c1` [Example 37, 6-isopropoxy-1-(2-(pyrrolidin-1-yl)pyridin-4-yl)-1H-indazole], 6.64.
The same measure, in the same setting: the figure for `COC1(C)CN(c2cc(-n3ncc4ccc(OC(C)C)cc43)ccn2)C1` [Example 41, 6-isopropoxy-1-(2-(3-methoxy-3-methylazetidin-1-yl)pyridin-4-yl)-1H-indazole] is 6.05; for `CS(=O)(=O)N1CCN(c2cc(-n3ncc4ccc(-c5cccnc5)cc43)ncn2)CC1` [Example 62, 1-{6-[4-(methylsulfonyl)piperazin-1-yl]pyrimidin-4-yl}-6-pyridin-3-yl-1H-indazole] it is 6.31.
Regarding `CC(C)Oc1ccc2cnn(-c3ccnc(N4CCN(CC5CCC5)CC4)c3)c2c1` [Example 27, 1-(2-(4-(cyclobutylmethyl)piperazin-1-yl)pyridin-4-yl)-6-isopropoxy-1H-indazole], the pIC50 in data set [1] was 6.44.
On the same count and under the same terms, the figure for `CC(C)Oc1ccc2cnn(-c3ccnc(N4CCN(CCO)CC4)c3)c2c1` [Example 39, 2-(4-(4-(6-isopropoxy-1H-indazol-1-yl)pyridin-2-yl)piperazin-1-yl)ethanol] is 6.71; for `Cn1cc(-c2ccc3cnn(-c4ccnc(N5CCn6ccnc6C5)c4)c3c2)cn1` [Example 52, 7-(4-(6-(1-methyl-1H-pyrazol-4-yl)-1H-indazol-1-yl)pyridin-2-yl)-5,6,7,8-tetrahydroimidazo[1,2-a]pyrazine] it is 6.72.
Compound `Cn1cc(-c2ccc3cnn(-c4ccnc(N5CCCC5)c4)c3c2)cn1` [Example 46, 6-(1-methyl-1H-pyrazol-4-yl)-1-(2-(pyrrolidin-1-yl)pyridin-4-yl)-1H-indazole] had a pIC50 in data set [1] of 7.13.
The same measure, in the same setting: the figure for `Cn1cc(-c2ccc3cnn(-c4ccnc(N5CC[C@H](F)C5)c4)c3c2)cn1` [Example 13, (S)-1-(2-(3-fluoropyrrolidin-1-yl)pyridin-4-yl)-6-(1-methyl-1H-pyrazol-4-yl)-1H-indazole] is 6.97; for `CC(C)Oc1ccc2cnn(-c3ccnc(N4CCN(C)C(=O)C4)c3)c2c1` [Example 31, 4-(4-(6-isopropoxy-1H-indazol-1-yl)pyridin-2-yl)-1-methylpiperazin-2-one] it is 6.35; for `Cn1cc(-c2ccc3cnn(-c4ccnc(N5CC(F)(F)C5)c4)c3c2)cn1` [Example 11, 1-(2-(3,3-difluoroazetidin-1-yl)pyridin-4-yl)-6-(1-methyl-1H-pyrazol-4-yl)-1H-indazole] it is 6.65.
Same read-out and setting: to `Cn1cc(-c2ccc3cnn(-c4ccnc(N5CCC(O)CC5)c4)c3c2)cn1` [Example 44, 1-(4-(6-(1-methyl-1H-pyrazol-4-yl)-1H-indazol-1-yl)pyridin-2-yl)piperidin-4-ol] belongs 7.00.

These data come from US10954240B2, “Compounds inhibiting leucine-rich repeat kinase enzyme activity” (Merck Sharp & Dohme Corp., priority 2014, dated 2021).
